Source: patent US20210163471A1, “PROGRANULIN MODULATORS AND METHODS OF USING THE SAME” (ARKUDA THERAPEUTICS, priority 2017, published 2021)

System: BV-2 (mouse microglia) cells
Experiment: progranulin secretion from BV-2 cells, mouse progranulin ELISA of conditioned media
Type: cell-based
Conditions: Mus musculus, BV-2, 16 h, BV-2 cells, 16 hours incubation, 8-point curves starting at 10 μM; assay run v2 (same protocol, different assay); read-out: PRGN v2 (EC50, progranulin secretion)
Procedure, shortened: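 Mouse BV-2 microglia plated at 30,000 cells/well in RPMI/L-glutamine with 2% Fetal clone serum II, 1 h attachment. Treated for 16 h with 8-point half-log dilutions from 10 μM. Secreted progranulin measured by mouse progranulin ELISA on 1:10-diluted conditioned media.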

O=S(=O)(C[C@H]1CN2CCC1CC2)N1CCc2ccccc2[C@@H]1c1ccccc1 [Compound 1142]
EC50: > 10 µM
